In a melting point compilation (Tetko et al.):

Compound `CC(=O)c1ccc(N2CCOCC2)c(F)c1` has a melting point of 84 to 86 °C.
In the case of `Cc1cc(-c2nc(C)cs2)c(=O)[nH]n1`, the melting point is reported as 267 to 269 °C.
Work on `O=C1CN(c2ccccc2)C(=O)N1` yielded a melting point of 190 to 192 °C.
Compound `CCCOc1cccc(CC(=O)O)c1` has a melting point of 88 to 90 °C.
For `CCOC(=O)c1n[nH]c(C(O)c2ccccc2)n1` (stereo not drawn), the melting point was 49 to 51 °C.
`Cc1ccccc1-c1nn(-c2ccccc2)cc1C(=O)O` gave a melting point of 177 to 179 °C.
Work on `CC(C)(C)C(=O)Nc1ccc(F)c(C(=O)O)c1` yielded a melting point of 179 to 181 °C.
`O=C(O)c1cc(-c2cccnc2)on1` gave a melting point of 179 to 181 °C.
For `O=C1CCCc2nc(-c3ccncc3)sc21`, the melting point was 159 to 161 °C.
`C/C(=N\O)c1ccc(-c2cccc(Br)c2)s1` gave a melting point of 168 to 170 °C.
`O=c1[nH]c2cc(F)c(F)cc2[nH]1` showed a melting point of 332 to 334 °C.
Compound `N#CCCn1cc(C(=O)O)c(-c2cccc(Br)c2)n1` has a melting point of 154 to 156 °C.
In the case of `Sc1nnc2c(Cl)cc(Cl)cn12`, the melting point is reported as 257 to 259 °C.
Compound `CC(C)(C)OC(=O)NC(CN)C1CC1` (stereo not drawn) has a melting point of 57 to 59 °C.
Compound `COC(=O)Nc1ccc(CO)cc1` has a melting point of 79 to 81 °C.
`Sc1nnc(NCCc2ccccc2)s1` showed a melting point of 143 to 145 °C.
`Cc1n[nH]c(C)c1S(=O)(=O)N1CCC(C)CC1` gave a melting point of 178 to 180 °C.
With `COc1ccnc(NCc2cccc(C(=O)O)c2)n1` the melting point was 219 to 221 °C.
Compound `CC(C)C(Br)C(=O)Nc1ccc2c(c1)CCC2` (stereo not drawn) has a melting point of 124 to 126 °C.
In the case of `CCOC(=O)c1sc(-c2ccc(OC)cc2)cc1N`, the melting point is reported as 120 to 122 °C.
In the case of `COC(=O)c1ccc(OCCBr)c(Cl)c1`, the melting point is reported as 72 to 74 °C.
Compound `CN(C(=O)OC(C)(C)C)c1ccc(C(=N)N)cc1` has a melting point of 142 to 144 °C.
Work on `CCCNC(=O)C1CNc2ccccc2O1` (stereo not drawn) yielded a melting point of 129 to 131 °C.
`CC(CC(=O)O)C1CCNCC1` (stereo not drawn) showed a melting point of 255 to 257 °C.
Work on `O=C1NC(=O)C(c2cccc(O)c2)N1` (stereo not drawn) yielded a melting point of 213 to 215 °C.
Work on `CN1CCN(C(=O)Cn2cc(N)cn2)CC1` yielded a melting point of 119 to 121 °C.
Work on `COc1ccc(-c2csc(N)n2)cc1Br` yielded a melting point of 188 to 190 °C.
For `Nc1ccccc1Oc1ncc(Cl)cc1Cl`, the melting point was 104 to 106 °C.
For `NC(=O)c1cc(CCO)c(C(F)(F)F)[nH]c1=O`, the melting point was 230 to 232 °C.
Work on `NC(=O)CC1CCCCC1` yielded a melting point of 165 to 167 °C.
`CCOC(=O)c1c[nH]n(C)c1=N` showed a melting point of 95 to 97 °C.
Work on `COc1ccc(Cn2cnc(N)n2)cc1` yielded a melting point of 129 to 131 °C.
`O=C1c2ccccc2C(=O)N1CC1(CBr)CCCC1` showed a melting point of 68 to 70 °C.
With `CC(=O)CC(=O)CCN1C(=O)c2ccccc2C1=O` the melting point was 104 to 106 °C.
With `O=C(CCCl)Nc1ccc(F)cc1` the melting point was 109 to 111 °C.
Compound `NS(=O)(=O)c1cccc(NC(=O)CCl)c1` has a melting point of 162 to 171 °C.
In the case of `O=S(=O)(c1cccc2c1N=S=N2)N1CCNCC1`, the melting point is reported as 178 to 183 °C.
`O=C(O)C=Cc1cn(-c2ccccc2)nc1-c1cccc([N+](=O)[O-])c1` gave a melting point of 248 to 250 °C.
Work on `O=C(O)c1c[nH]c2ccccc2c1=O` yielded a melting point of 250 to 252 °C.
`Cc1nc(-c2cnn(C)c2)sc1C(=O)O` gave a melting point of 230 to 232 °C.
For `COc1ccc(C(C)=O)cc1-c1ccccc1`, the melting point was 91 to 93 °C.
`O=C(O)CCc1nc(-c2ccsc2)no1` showed a melting point of 153 to 155 °C.
Compound `CCOc1cc(C=O)ccc1OCc1c(F)cccc1Cl` has a melting point of 111 to 113 °C.
With `Nc1cnn(-c2ccncc2)c1` the melting point was 152 to 154 °C.
In the case of `Nc1nc(-c2ccc(F)cc2)cs1`, the melting point is reported as 111 to 113 °C.
With `Nc1cccc(S(=O)(=O)Nc2ccccc2Cl)c1` the melting point was 110 to 112 °C.
`COc1cc(N)ccc1S(=O)(=O)N1CCCC1` showed a melting point of 145 to 147 °C.
For `CC(C)c1ccccc1NC(N)=S`, the melting point was 137 to 139 °C.
With `CCC1(C)NC(=O)N(CCCN)C1=O` (stereo not drawn) the melting point was 63 to 65 °C.
Compound `O=S(=O)(NCc1ccccc1)c1cccs1` has a melting point of 145 to 150 °C.
`Sc1nnnc2ccccc12` showed a melting point of 183 to 185 °C.
Work on `CC(C)(C)c1ccc(-c2ccc(C(=O)O)o2)cc1` yielded a melting point of 213 to 215 °C.
`COc1cc(CCC(=O)O)cc(OC)c1` gave a melting point of 54 to 56 °C.
For `Cc1ccc(-c2cc(N)nc(-c3ccccc3)c2)cc1`, the melting point was 110 to 112 °C.
With `CN(CC12CC3CC(CC(C3)C1)C2)C(=O)CCl` the melting point was 52 to 54 °C.
Work on `NC(=O)CCCl` yielded a melting point of 142 to 144 °C.
In the case of `O=C(O)c1cc([N+](=O)[O-])ccc1SCCO`, the melting point is reported as 163 to 165 °C.
Compound `O=Cc1cc(-c2cccs2)cs1` has a melting point of 107 to 109 °C.
For `Clc1sc2ccccc2c1Cl`, the melting point was 53 to 55 °C.
In the case of `Cc1nc(-c2ccccc2)c(N)s1`, the melting point is reported as 169 to 171 °C.
`Nc1ccc(N2CCSCC2)cc1C(=O)O` gave a melting point of 176 to 178 °C.
Work on `O=C(O)C=C1CCOCC1` yielded a melting point of 99 to 101 °C.
`COCCc1ccc2oc(N)nc2c1` showed a melting point of 159 to 161 °C.
Compound `Cc1ccccc1Nc1nnc(S)s1` has a melting point of 230 to 232 °C.
For `COc1cc(OC)c(N(C)S(=O)(=O)c2cccc(C(=O)O)c2)cc1Cl`, the melting point was 208 to 210 °C.
In the case of `CC(C)NC(=O)OCC(F)(F)F`, the melting point is reported as 48 to 50 °C.
With `NCc1ccc(Cn2cnc3ccccc32)cc1` the melting point was 72 to 74 °C.
With `Fc1ccc2nc(-c3ccccn3)[nH]c2c1` the melting point was 159 to 161 °C.
For `N#Cc1ccc(OCCO)cc1`, the melting point was 85 to 87 °C.
With `COC(=O)COc1cc(C(=O)O)ccc1OC` the melting point was 144 to 146 °C.
Compound `O=S(=O)(NC1CC1)c1ccc(F)cc1` has a melting point of 54 to 56 °C.
`OCCNCc1ccc(Cl)c(Cl)c1` showed a melting point of 54 to 56 °C.
`O=C(C1CCNCC1)N1CCc2ccccc21` gave a melting point of 67 to 69 °C.
